This is an account of results in patent US9629869B2, “Application of fructus schisandrae total polysaccharides in preparatoin of medicine or nutraceuticals used for treating coughing” (priority 2014, dated 2017).

What all share (type): in vivo, guinea pig
Experiment [1] relates to guinea pigs with increased cough sensitivity induced by cigarette smoke. The experiment in a line: Citric acid cough stimulation of guinea pigs with increased cough sensitivity induced by cigarette smoke (Embodiment I). The following applies: 30 mg/kg oral once, one hour before citric acid check, x ± s, n = 7-10. The procedure: Experimental animals used in the specific embodiments are ordinary male pure white Hartly guinea pigs each with a weight of 300±50 g which are supplied by the Laboratory Animal Center of Guangdong Province (SCXK (Guang) 2008-0002). The guinea pigs are raised in a relatively clean and quiet environment with constant temperature (23±3° C.) and constant humidity (55±15%); the diurnal cycle is 12:12 h/day; and the guinea pigs are raised in different cages, and every five guinea pigs are raised in one cage and can obtain food and water freely. […]
Except for the normal group, animals in other groups are respectively stimulated by adopting the smoking method described in the above 1.1. […] The guinea pigs are placed in a plethysmogrophy box at the 15th day; two minutes later, 0.4 mol/L citric acid aqueous solution is atomized to perform the cough stimulation, and the atomizing is ended in 10 minutes; the guinea pigs are continuously observed for 10 minutes; and the coughing times and coughing latent period of the guinea pigs in 20 minutes after the atomizing is started are recorded.

Experiment [2] deals with BALF inflammatory cells of guinea pigs with increased cough sensitivity induced by cigarette smoke. The experiment in a line: Total number and classification of BALF inflammatory cells, cigarette smoke guinea pigs (Embodiment I). Particulars: codeine group 30 mg/kg oral once, n = 7-10. As to the method:
1.1 Smoking method: prior to the experiment, after being adaptively raised quietly for one week, the guinea pigs are placed in a self-made cigarette poisoning box; ten cigarettes are fired every time and placed in a smoking trough (flume-cured tobacco type, content of tar is 12 mg, content of nicotine in smoke is 1.1 mg, and content of carbon oxide in the smoke is 15 mg); and the cigarette smoke is led into the poisoning box by three-way valve, and the timing is started after the cigarette is burnt out. The guinea pigs are smoked for 20 minutes every time and twice a day; and the smoking interval time between two adjacent smoking is greater than 6 h; and the guinea pigs are consecutively smoked for 14 days.
The guinea pigs are randomly divided into a normal group, a model group, a solvent reference group (0.5% PEG400), a codeine group, a water extract high dose group (dose: 500 mg/kg guinea pig/day: drug concentration: […]), a total polysaccharides high dose group (dose: 500 mg/kg guinea pig/day; drug concentration: 50 mg/mL), a total polysaccharides middle dose group (dose: 250 mg/kg guinea pig/day; drug concentration: 25 mg/mL) and a total polysaccharides low dose group (dose: 125 mg/kg guinea pig/day, drug concentration: 12.5 mg/mL).
Except for the normal group, animals in other groups are respectively stimulated by adopting the smoking method described in the above 1.1. Except for the normal group and the codeine group, the guinea pigs in the other groups are orally given with the corresponding drugs or solvent two hours before the second smoking for 14 consecutive days from the first day of smoking. The guinea pigs of the codeine group is orally administrated (30 mg/kg guinea pig; the codeine concentration: 3 mg/mL) one hour before the citric acid cough sensitivity check. The guinea pigs of the normal group are normally raised without any treatment. The guinea pigs are placed in a plethysmogrophy box at the 15th day; two minutes later, 0.4 mol/L citric acid aqueous solution is atomized to perform the cough stimulation, and the atomizing is ended in 10 minutes; the guinea pigs are continuously observed for 10 minutes; and the coughing times and coughing latent period of the guinea pigs in 20 minutes after the atomizing is started are recorded.
Intraperitoneal injection with 3% pentobarbital sodium solution (1 mL/kg) is performed to anesthetize the animal in 24 hours after the cough stimulation test, and 10 mL of blood is taken from the heart of the animal. The bronchoalveolar lavage fluid (BALF) is obtained by taking 6 mL of 0.1 mol/L pre-cooled PBS buffer solution, performing the bronchoalveolar lavage for three times, and uniformly lavaging the left lung repeatedly for three times. […]

Experiment [3] deals with acute cough guinea pigs induced by citric acid smoke. The experiment in a line: Acute cough of guinea pigs induced by citric acid smoke, five days of dosing (Embodiment II). Particulars: 30 mg/kg oral once, one hour before stimulation at fifth day, x ± s, n = 8. As to the method:
After the guinea pigs are quietly raised for one week, the cough sensitivity screening is carried out: the guinea pigs is stimulated for one minute by atomizing 0.8 mol/L citric acid and continuously observed for five minutes; the coughing times of the guinea pigs in 6 minutes after the atomizing is started is recorded; and the guinea pigs with the coughing times greater than 10 times and less than 50 times are the qualified guinea pigs. […]
Except for the normal group and the codeine group, the guinea pigs in the rest groups are orally given with drugs or solvent consecutively for five days and once a day; and the citric acid cough stimulation is carried out in one hour after the guinea pigs are given with the drug or solvent at the fifth day: the guinea pigs are stimulated for one minute by atomizing 0.8 mol/L citric acid and are continuously observed for 5 minutes after the atomizing is stopped, and the coughing times of the guinea pigs in 6 minutes after the atomizing is started is recorded. […]

Experiment [4] relates to citric acid smoke stimulation-caused guinea pigs. Put plainly: Coughing times of citric acid smoke stimulated guinea pigs at different time points after one dose (Embodiment III). The following applies: 5 hours after one oral dose of 30 mg/kg; FIG. 2. As to the method: After the guinea pigs are quietly raised for one week, the cough sensitivity is screened: the guinea pigs are stimulated for one minute by atomizing 0.8 mol/L citric acid and continuously observed for five minutes after the atomizing is stopped; the coughing times of the guinea pigs in 6 minutes after the atomization is started is recorded; and the guinea pigs with the coughing times greater than 10 times and less than 50 times are the qualified guinea pigs.
The qualified guinea pigs are selected to be normally raised for three days and randomly divided into four groups with 30 guinea pigs in each group. The guinea pigs in the first group are divided into three subgroups with 10 guinea pigs in each subgroup, and all guinea pigs are directly under the citric acid cough stimulation: the guinea pigs are stimulated for one minute by atomizing 0.8 mol/L citric acid and are continuously observed for 5 minutes after the atomization is stopped, and the coughing times of the guinea pigs in 6 minutes after the atomization is started is recorded. […]

As to `COc1ccc2c3c1O[C@H]1[C@@H](O)C=C[C@H]4[C@@H](C2)N(C)CC[C@@]341` [Codeine], the Coughing times in experiment [1] (0.4 mol/L citric acid, day 15, 20 min count) amounted to 37.29 ± 11.64; in experiment [3] (0.8 mol/L citric acid, 6 min count) it was 3.83 ± 1.94. The “Coughing latent period” value in experiment [1] (day 15) was 186.14 ± 45.27 s; in experiment [3], 115.3 ± 20.18 s. Moreover, in experiment [2] (BALF eosinophils, mean), the Eos % is listed as 4.25%. The molecule further registered a Lym % in experiment [2] (BALF lymphocytes, mean) of 3.64%. This molecule also showed a Mac % in experiment [2] (BALF macrophages, mean) of 43.86%. This molecule registered a Neu % in experiment [2] (BALF neutrophils, mean) of 48.10%. In addition, the “total number of cells * 10^6/mL” value in experiment [2] (BALF, x ± s) is 2.13 ± 0.38 10^6/mL. Besides, the “coughing times compared with the normal group” value in experiment [4] is recorded as “no significant difference”.
